In US20090325959A1 (priority 2008, published 2009):
Like-named read-outs stand apart in the source and are kept apart here.

How the values were obtained:
ROCK1 = molecular target: T1, ROCK1 (Homo sapiens, UniProt Q13464); assay: Rho kinase inhibition assay (IMAP fluorescence polarization), ROCK1; assay type: biochemical;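 further: kinase reaction run 60 min at room temperature, then phosphorylated substrate captured on IMAP beads for 30 min, with fluorescence polarization read in mP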
T1 construct: purchased Upstate/Chemicon 14-601
Protocol: (§1) Following the pre-incubation, 10 μM ATP was added to initiate the reaction. After 60 minutes at room temperature, Molecular Devices IMAP™ binding solution was added to bind phosphorylated substrate. After 30 minutes of incubation in the presence of the IMAP™ beads, the fluorescence polarization was read and the ratio was reported as mP. IC50 values for compounds and EC50 values for ATP were calculated using the Prism software from Graphpad.

ROCK2 = molecular target: T2, ROCK2 (Homo sapiens, UniProt O75116); assay: Rho kinase inhibition assay (IMAP fluorescence polarization), ROCK2; assay type: biochemical;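 further: kinase reaction started with 10 µM ATP and run 60 min at room temperature, then phosphorylated substrate captured on IMAP beads for 30 min and fluorescence polarization read in mP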
T2 construct: purchased Upstate/Chemicon 14-451
Protocol: as §1

Akt3 human enzyme = molecular target: T3, Akt3 human enzyme (Homo sapiens, UniProt Q9Y243); assay: Akt3 inhibition assay (IMAP FP); assay type: biochemical;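 further: kinase reaction run 60 min at room temperature after 30 µM ATP start, phosphorylated substrate captured on IMAP beads and read as fluorescence polarization (mP)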
T3 construct: purchased Upstate Chemicon 14-502

p70S6K human enzyme = molecular target: T4, p70S6K human enzyme (Homo sapiens, UniProt P23443, T412E); assay: p70S6K inhibition assay (IMAP FP); assay type: biochemical;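 further: kinase reaction run at room temperature, phosphorylated substrate captured on IMAP beads and read as fluorescence polarization in mP, IC50 then converted to Ki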
T4 construct: purchased Upstate Chemicon 14-486

[1] = tested on: A-10 rat thoracic aorta cells; assay: PDGF-stimulated smooth muscle cell proliferation assay (BrdU incorporation); assay type: cell-based; conditions: A-10 cells, 10 ng/mL PDGF, BrdU incorporation, percent of total challenge-stimulated proliferation; for Percent of PDGF Induced Proliferation at 1 μM Avg: 1 μM test compound; for Percent of PDGF Induced Proliferation at 10 μM Avg: 10 μM test compound;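 on all read-outs here: cells kept in serum-free medium, BrdU allowed to incorporate for 24 h, then incorporated label detected fluorometrically with an anti-BrdU antibody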
[2] = Compound plasma concentrations in unsensitized mice at 15 min post administration; assay type: in vivo; conditions: mouse, 15 μmol/kg; mean compound plasma concentration in mice at 15 minutes post oral administration; read-out: Mouse Oral PK
[3] = 10 μM ATP, read-out: ROCK2 Ki, Avg
[4] = 30 μM ATP, Ki=IC50/(1+([ATP Challenge]/EC50 ATP)), read-out: Akt3 Ki, Avg
[5] = 30 μM ATP, Ki=IC50/(1+([ATP Challenge]/EC50 ATP)), read-out: p70S6K Ki, Avg
[6] = average Ki, read-out: p70S6K Ki

T4 sequence (P23443 1-421 T412E limits assumed): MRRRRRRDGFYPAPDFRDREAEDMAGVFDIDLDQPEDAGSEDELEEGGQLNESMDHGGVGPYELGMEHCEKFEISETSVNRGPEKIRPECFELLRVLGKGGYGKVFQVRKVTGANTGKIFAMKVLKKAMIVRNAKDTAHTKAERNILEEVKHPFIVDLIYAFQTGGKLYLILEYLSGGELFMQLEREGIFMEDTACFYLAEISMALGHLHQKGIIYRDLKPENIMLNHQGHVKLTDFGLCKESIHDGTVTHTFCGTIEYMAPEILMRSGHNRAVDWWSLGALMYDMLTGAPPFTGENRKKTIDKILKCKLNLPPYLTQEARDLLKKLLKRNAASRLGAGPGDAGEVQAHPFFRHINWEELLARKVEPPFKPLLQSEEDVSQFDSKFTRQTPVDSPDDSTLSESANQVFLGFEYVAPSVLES
T3 sequence (Q9Y243 whole entry): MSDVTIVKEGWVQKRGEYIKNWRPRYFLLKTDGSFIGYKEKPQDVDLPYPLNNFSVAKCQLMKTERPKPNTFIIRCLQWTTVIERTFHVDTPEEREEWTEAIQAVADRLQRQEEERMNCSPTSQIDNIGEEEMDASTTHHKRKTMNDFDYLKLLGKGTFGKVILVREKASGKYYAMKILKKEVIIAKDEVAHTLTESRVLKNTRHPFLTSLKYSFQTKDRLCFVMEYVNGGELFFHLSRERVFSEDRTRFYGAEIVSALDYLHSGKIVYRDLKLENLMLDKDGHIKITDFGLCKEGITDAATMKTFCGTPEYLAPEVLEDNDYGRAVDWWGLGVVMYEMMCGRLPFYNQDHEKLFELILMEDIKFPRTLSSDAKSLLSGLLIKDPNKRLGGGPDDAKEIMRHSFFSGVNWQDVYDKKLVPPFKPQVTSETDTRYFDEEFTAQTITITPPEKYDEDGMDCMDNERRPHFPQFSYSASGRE
T1 sequence (Q13464 17-535 limits assumed): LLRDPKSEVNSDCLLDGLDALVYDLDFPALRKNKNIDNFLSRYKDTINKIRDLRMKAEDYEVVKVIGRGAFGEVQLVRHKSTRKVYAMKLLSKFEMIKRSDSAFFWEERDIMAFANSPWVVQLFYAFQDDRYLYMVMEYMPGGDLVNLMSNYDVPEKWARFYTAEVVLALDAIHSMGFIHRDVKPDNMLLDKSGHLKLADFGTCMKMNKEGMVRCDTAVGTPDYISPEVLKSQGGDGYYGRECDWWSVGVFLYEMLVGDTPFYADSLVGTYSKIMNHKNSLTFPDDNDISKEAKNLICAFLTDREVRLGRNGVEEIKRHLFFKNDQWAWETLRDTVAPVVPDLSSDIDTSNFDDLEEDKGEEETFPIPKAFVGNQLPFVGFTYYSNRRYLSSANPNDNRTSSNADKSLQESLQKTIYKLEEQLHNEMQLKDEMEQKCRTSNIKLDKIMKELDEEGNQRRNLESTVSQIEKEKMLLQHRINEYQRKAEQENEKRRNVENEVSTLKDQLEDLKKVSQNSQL
T2 sequence (O75116 11-552 limits assumed): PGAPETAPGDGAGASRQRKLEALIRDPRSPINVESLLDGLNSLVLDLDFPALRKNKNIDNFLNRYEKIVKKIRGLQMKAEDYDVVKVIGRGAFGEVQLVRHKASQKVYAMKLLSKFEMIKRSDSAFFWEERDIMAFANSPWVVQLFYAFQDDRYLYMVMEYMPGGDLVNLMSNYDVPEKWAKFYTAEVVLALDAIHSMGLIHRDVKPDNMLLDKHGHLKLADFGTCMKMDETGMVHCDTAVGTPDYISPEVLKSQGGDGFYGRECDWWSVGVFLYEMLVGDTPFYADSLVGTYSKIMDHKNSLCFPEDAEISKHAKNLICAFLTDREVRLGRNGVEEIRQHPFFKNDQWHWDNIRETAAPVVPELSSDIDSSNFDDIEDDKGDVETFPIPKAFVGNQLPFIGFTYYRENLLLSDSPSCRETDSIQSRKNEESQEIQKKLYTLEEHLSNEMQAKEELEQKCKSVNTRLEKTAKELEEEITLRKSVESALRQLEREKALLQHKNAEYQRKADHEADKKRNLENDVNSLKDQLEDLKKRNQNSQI

| SMILES | Ki (ROCK1; Avg, 10 μM ATP) [µM] | Ki (ROCK2; [3]) [µM] | Ki (Akt3 human enzyme; [4]) [µM] | Ki (p70S6K human enzyme; [5]) [µM] | Percent of PDGF Induced Proliferation at 1 μM Avg [1] [%] | Percent of PDGF Induced Proliferation at 10 μM Avg [1] [%] | Ki (ROCK1; average Ki) [µM] | Ki (ROCK2; average Ki, read-out: ROCK2 Ki) [µM] | Ki (Akt3 human enzyme; average Ki, read-out: Akt3 Ki) [µM] | Ki (p70S6K human enzyme; [6]) [µM] | concentration at 15 min [2] [nM] |
| --- | --- | --- | --- | --- | --- | --- | --- | --- | --- | --- | --- |
| CC(C)c1ccc(CN2CCC[C@H](Nc3ccc4[nH]ncc4c3)C2)cc1 [Compound 1.180, (S)-N-(1-(4-isopropylbenzyl)piperidin-3-yl)-1H-indazol-5-amine] | 0.139 | 0.0231 | 12 | 1.03 | 92.4 | 64.8 |  |  |  |  |  |
| c1cc(N[C@@H]2CCN(Cc3ccc(C4CC4)cc3)C2)c2ccncc2c1 [Compound 2.022, (R)-N-(1-(4-cyclopropylbenzyl)pyrrolidin-3-yl)isoquinolin-5-amine] | 0.0448 | 0.0153 | 4.12 | 0.501 | 89.7 | 39.4 |  |  |  |  |  |
| CC(C)c1ccc(CN2CCC[C@@H](Nc3ccc4[nH]ncc4c3)C2)cc1 [Compound 1.204, (R)-N-(1-(4-isopropylbenzyl)piperidin-3-yl)-1H-indazol-5-amine] | 0.196 | 0.0319 | 1.91 | 0.927 | 79.3 | 42.8 |  |  |  |  |  |
| CSc1ccc(CN2CCCC(Nc3cccc4cnccc34)C2)cc1 (stereo not shown) [Compound 2.009, N-(1-(4-(methylthio)benzyl)piperidin-3-yl)isoquinolin-5-amine] |  |  | 3.73 | 1.28 | 128.9 | 56.5 |  |  |  |  |  |
| Cc1ccc(CN2CCC[C@H](Nc3ccc4[nH]ncc4c3)C2)cc1O [Compound 1.151, (S)-5-((3-(1H-indazol-5-ylamino)piperidin-1-yl)methyl)2-methylphenol] | 0.0228 | 0.0029 | 0.709 | 0.531 | 51.0 | 63.8 |  |  |  |  |  |
| c1cc(N[C@@H]2CCN(Cc3ccc4occc4c3)C2)c2ccncc2c1 [Compound 2.055, (R)-N-(1-(benzofuran-5-ylmethyl)pyrrolidin-3-yl)isoquinolin-5-amine] | 0.016 | 0.0064 | 0.978 | 0.312 |  |  | 0.016 | 0.0064 | 0.978 | 0.312 | 656 |
| OCCn1ccc2ccc(CN3CC[C@@H](Nc4cccc5cnccc45)C3)cc21 [Compound 2.060, (R)-2-(6-((3-(isoquinolin-5-ylamino)pyrrolidin-1-yl)methyl)-1H-indol-1-yl)ethanol] | 0.0049 | 0.0032 | 0.329 | 0.181 |  |  | 0.0049 | 0.0032 | 0.329 | 0.181 | 308 |
| OCCN1CCc2ccc(CN3CCC[C@H](Nc4ccc5[nH]ncc5c4)C3)cc21 [Compound 1.217, (S)-2-(6-((3-(1H-indazol-5-ylamino)piperidin-1-yl)methyl)indolin-1-yl)ethanol] | 0.0701 | 0.0121 | 10.3 | 3.5 |  |  | 0.0701 | 0.0121 | 10.3 | 3.5 | 293 |
| Oc1cccc(CN2CCC[C@H](Nc3ccc4[nH]ncc4c3)C2)c1 [Compound 1.163, (S)-3-((3-(1H-indazol-5-ylamino)piperidin-1-yl)methyl)phenol] | 0.0336 | 0.0029 | 4.42 | 1.88 |  |  | 0.0336 | 0.0029 | 4.42 | 1.88 | 10 |
| Cc1cccc(CN2CCC[C@H](Nc3ccc4[nH]ncc4c3)C2)c1 [Compound 1.171, (S)-N-(1-(3-methylbenzyl)piperidin-3-yl)-1H-indazol-5-amine] | 0.109 | 0.016 | 9.33 | 3.42 |  |  | 0.109 | 0.016 | 9.33 | 3.42 | 369 |
| CS(=O)(=O)Nc1cccc(CN2CCC[C@@H](Nc3ccc4[nH]ncc4c3)C2)c1 [Compound 1.093, (R)-N-(3-((3-(1H-indazol-5-ylamino)piperidin-1-yl)methyl)phenyl)methanesulfonamide] | 0.0645 | 0.0077 | 1.82 | 2.03 |  |  | 0.0645 | 0.0077 | 1.82 | 2.03 | 363 |
| CCOC(=O)COc1cccc(CN2CCC[C@H](Nc3ccc4[nH]ncc4c3)C2)c1 [Compound 1.200, (S)-ethyl 2-(3-((3-(1H-indazol-5-ylamino)piperidin-1-yl)methyl)phenoxy)acetate] | 0.0765 | 0.0059 | 10.6 | 3.9 |  |  | 0.0765 | 0.0059 | 10.6 | 3.9 | 0 |
| Cc1cccc(CN2CCC[C@H](Nc3ccc4[nH]ncc4c3)C2)c1C [Compound 1.156, (S)-N-(1-(2,3-dimethylbenzyl)piperidin-3-yl)-1H-indazol-5-amine] | 0.136 | 0.013 | 8.77 | 3.24 |  |  | 0.136 | 0.013 | 8.77 | 3.24 | 88 |
| C#Cc1ccc(CN2CCC[C@H](Nc3ccc4[nH]ncc4c3)C2)cc1 [Compound 1.077, (S)-N-(1-(4-ethynylbenzyl)piperidin-3-yl)-1H-indazol-5-amine] | 0.0761 | 0.0111 | 5.25 | 0.716 |  |  | 0.0761 | 0.0111 | 5.25 | 0.716 | 26 |
| CS(=O)(=O)Cc1cccc(CN2CCC[C@H](Nc3ccc4[nH]ncc4c3)C2)c1 [Compound 1.157, (S)-N-(1-(3-(methylsulfonylmethyl)benzyl)piperidin-3-yl)-1H-indazol-5-amine] | 0.264 | 0.0088 | 29.2 | 8.69 |  |  | 0.264 | 0.0088 | 29.2 | 8.69 | 357 |
| COc1ccc(CN2CCC[C@H](Nc3ccc4[nH]ncc4c3)C2)cc1 [Compound 1.079, (S)-N-(1-(4-methoxybenzyl)piperidin-3-yl)-1H-indazol-5-amine] | 0.0715 | 0.0047 | 7.19 | 3.01 |  |  | 0.0715 | 0.0047 | 7.19 | 3.01 | 2440 |
| C#Cc1cccc(CN2CCC[C@H](Nc3ccc4[nH]ncc4c3)C2)c1 [Compound 1.153, (S)-N-(1-(3-ethynylbenzyl)piperidin-3-yl)-1H-indazol-5-amine] | 0.0628 | 0.0042 | 9.95 | 2.38 |  |  | 0.0628 | 0.0042 | 9.95 | 2.38 | 522 |
